Molecular target: T1, human LPAAT-β (Homo sapiens, UniProt O15120)
T1 construct: the full-length human LPAAT-β cDNA was amplified by PCR; poly-histidine tag (N); made in house; host or cells: Sf9 insect cells (baculovirus, pFastBac HTc); the membrane fraction was used as the enzyme
T1 sequence (O15120 24-278): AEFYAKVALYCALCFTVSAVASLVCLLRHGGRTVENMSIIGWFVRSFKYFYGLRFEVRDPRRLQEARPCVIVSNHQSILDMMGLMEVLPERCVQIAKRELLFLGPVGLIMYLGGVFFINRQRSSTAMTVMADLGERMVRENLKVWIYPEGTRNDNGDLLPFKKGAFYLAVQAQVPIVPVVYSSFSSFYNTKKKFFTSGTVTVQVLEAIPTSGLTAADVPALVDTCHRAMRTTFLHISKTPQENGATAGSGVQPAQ
Assay: LPAAT-β cell-free assay
Format: biochemical
Details: Sf9 cell membrane overexpressing recombinant LPAAT-β
Text: For the construction of Baculovirus expression vectors, the full-length human LPAAT-β cDNA was amplified by PCR from the DNA template pCE9.LPAAT-β (West et al., DNA Cell Bid. 16.691-701 (1997)) using the primers 5′-[…] […] […] […]-3′ (olpb1F; SEQ ID NO:1) and 5′-[…] […] […]-3′ (olpb1R; SEQ ID NO:2). The ˜870 bp fragment generated was reamplified by PCR using the primers 5′ […] […] […] […] ATC-3′ (olpb2F; SEQ ID NO:3) and 5′-[…] […] […]-3′ (olpb1R; SEQ ID NO:2). The ˜890 bp fragment generated was then cleaved with Sal I and Xba I for insertion into pFastBac™ HTc vector (Life Technologies, Gaithersberg, M.d.) between the Sal I and Xba I sites for the generation of the plasmid pFB.LPAAT-β. This plasmid was then transformed into E. coli DH10Bac™ (Life Technologies, Gaithersberg, M.d.) for the generation of recombinant Bacmid DNA for transfection in HighFive (Invitrogen, San Diego, Calif.) or SF9 insect cells for the production of recombinant Baculovirus stocks using the protocol described in the Bac-to-Bac® Baculovirus Expression System (Life Technologies, Gaithersberg, M.d.), a eukaryotic expression system for generating recombinant baculovirus through site-specific transposition in E. coli. Viral stocks harvested from the transfected cells can then be used to infect fresh insect cells for the subsequence expression of LPAAT-β fusion protein with a poly-histidine tag and a myc-epitope near its N-terminus. The membrane fraction from these Sf9 cells would be the source of LPAAT enzyme.
For the preparation of membranes from Sf9 Cells, all steps are performed on ice or at 4° C. Sf9 cell pellets (˜10^8 cells) were thawed and resuspended in 1-2 ml of buffer A (20 mM Hepes, pH 7.5, 1 mM DTT, 1 mM EDTA, 20% w/v glycerol, 1 mM Benzamidine, 1 μg/ml soybean trypsin inhibitor (SBTI), 1 μug/ml pepstatin A) w/o DTT but with 1 mM Pefabloc. The cells were lysed by sonication using a Branson Sonifier at output=2, duty cycle=2, 10 pulses each at 10 s. with the tip of small sonicator probe submerged but not touching the walls. DTT was then added to 1 mM from a 1 M stock. The samples were centrifuged at 1500 rpm for 5 min. The low speed supernatant was saved and centrifuged (TLA 100.3 rotor, polycarbonate tubes, 2 ml/tube or 1.5 ml/tube minimum) at 100000×g for 1 hr. The high speed pellet was resuspend in Buffer A with a probe sonicator (10 pulses @ output #2 and duty cycle 20%) as a source of LPAAT enzyme.
LPAAT-β catalyzes the transfer of an acyl group from a donor such as acyl-CoA to LPA. The transfer of the acyl group from acyl-CoA to LPA leads to the release of free CoA, which can be reacted with the thiol reagent, 5,5′-dithiobis(2-nitrobenzoic acid) (DTNB). The reaction between DTNB and the free sulfhydryl group from CoA generates a yellow-colored product, 3-carboxylato-4-nitrothiophenolate (CNP), that absorbs at 413 nm. LPAAT-β derived from Sf9 cell membrane overexpressing LPAAT-β were resuspended in HEPES saline buffer (20 mM HEPES pH 7.5, 150 mM NaCl), 1 mg/ml BSA and 72 μl aliquots were distributed into 96-well microtiter plates. 8 μl of compound of interest at 200 μM dissolved in 100% DMSO was added into each well. […] of 1 mM 18:1-CoA and 1 mM sn-1-18:1 lysoPA was then added to each well to initiate the reaction and allowed to run at room temperature for 25 min. 100 μl of 1 mM DTNB in 100% ethanol was then added to each well to quench the reaction and for color development. The absorbance at 405 nm, measured using a spectrophotometer plate reader, is proportional to the activity of LPAAT-2 in the sample. This colorimetric assay was used for the high throughput screening of LPAAT inhibitors.
The radiometric assay was carried out in Sf9 cell membrane overexpressing LPAAT-β resuspended in HEPES-saline buffer, pH 7.5, 1 mg/ml BSA, 1 mM EDTA and 200 μM [^14C]18:1-CoA and 200 μM sn-1-18:1 lysoPA.

| IC50 [nM] | SMILES |
| --- | --- |
| 120 | COc1ccc(Cl)cc1-c1cc(Nc2ccc(C)cc2)nc(N)n1 [Example 1, 6-(5-Chloro-2-methoxy-phenyl)-N*4*-p-tolyl-pyrimidine-2,4-diamine] |
| 54 | COc1ccc(Cl)cc1-c1cc(Nc2ccc(Cl)cc2)nc(N)n1 [Example 2, 6-(5-Chloro-2-methoxy-phenyl)-N*4*-(4-chloro-phenyl)-pyrimidine-2,4-diamine] |
| 80 | COc1ccc(Cl)cc1-c1cc(Nc2ccc3cn[nH]c3c2)nc(N)n1 [Example 3, 6-(5-Chloro-2-methoxy-phenyl)-N*4*-(1H-indazol-6-yl)-pyrimidine-2,4-diamine] |
| 88 | COc1ccc(Cl)cc1-c1cc(Nc2ccc(C(F)(F)F)cc2)nc(N)n1 [Example 4, 6-(5-Chloro-2-methoxy-phenyl)-N*4*-(4-trifluoromethylphenyl)-pyrimidine-2,4-diamine] |
| 29 | COc1ccc(Cl)cc1-c1cc(Nc2ccc(Br)cc2)nc(N)n1 [Example 5, N*4*-(4-Bromo-phenyl)-6-(5-chloro-2-methoxy-phenyl)-pyrimidine-2,4-diamine] |
| 450 | COc1ccc(Cl)cc1-c1cc(Nc2ccc(O)cc2)nc(N)n1 [Example 6, 4-[2-Amino-6-(5-chloro-2-methoxy-phenyl)-pyrimidin-4-ylamino]-phenol] |
| 410 | COc1ccc(Nc2cc(-c3cc(Cl)ccc3OC)nc(N)n2)cc1 [Example 7, 6-(5-Chloro-2-methoxy-phenyl)-N*4*-(4-methoxy-phenyl)-pyrimidine-2,4-diamine] |
| 270 | COc1ccc(Cl)cc1-c1cc(Nc2ccc3ncsc3c2)nc(N)n1 [Example 8, N*4*-Benzothiazol-6-yl-6-(5-chloro-2-methoxy-phenyl)-pyrimidine-2,4-diamine] |
| 600 | COC(=O)c1ccc(Nc2cc(-c3cc(Cl)ccc3OC)nc(N)n2)cc1 [Example 9, 4-[2-Amino-6-(5-chloro-2-methoxy-phenyl)-pyrimidin-4-ylamino]-benzoic acid methyl ester] |
| 120 | COc1ccc(Cl)cc1-c1cc(Nc2ccc(CO)cc2)nc(N)n1 [Example 10, {4-[2-Amino-6-(5-chloro-2-methoxy-phenyl)-pyrimidin4-ylamino]-phenyl}-methanol] |
| 14 | COc1ccc(Cl)cc1-c1cc(Nc2ccc([N+](=O)[O-])cc2)nc(N)n1 [Example 11, 6-(5-Chloro-2-methoxy-phenyl)-N*4*-(4-nitro-phenyl)-pyrimidine-2,4-diamine] |
| 95 | COc1ccc(Cl)cc1-c1cc(Nc2ccc(N)cc2)nc(N)n1 [Example 12, N*4*-(4-Amino-phenyl)-6-(5-chloro-2-methoxy-phenyl)-pyrimidine-2,4-diamine] |
| 100 | COc1ccc(Cl)cc1-c1cc(Nc2ccc3c(c2)OCO3)nc(N)n1 [Example 13, N*4*-Benzo [1,3]dioxol-5-yl-6-(5-chloro-2-methoxy-phenyl)-pyrimidine-2,4-diamine] |
| 26 | Nc1nc(Nc2ccc(Br)cc2)cc(-c2cc(Cl)ccc2Cl)n1 [Example 14, N*4*-(4-Bromo-phenyl)-6-(2,5-dichloro-phenyl)-pyrimidine-2,4-diamine] |
| 50 | Cc1ccc(Nc2cc(-c3cc(Cl)ccc3Cl)nc(N)n2)cc1 [Example 15, 6-(2,5-Dichloro-phenyl)-N*4*-p-tolyl-pyrimidine-2,4-diamine] |
| 120 | COc1ccc(Nc2cc(-c3cc(Cl)ccc3Cl)nc(N)n2)cc1 [Example 16, 6-(2,5-Dichloro-phenyl)-N*4*-(4-methoxy-phenyl)-pyrimidine-2,4-diamine] |

| IC50 [nM] | SMILES |
| --- | --- |
| 240 | Nc1nc(Nc2ccc(O)cc2)cc(-c2cc(Cl)ccc2Cl)n1 [Example 17, 4-[2-Amino-6-(2,5-dichloro-phenyl)-pyrimidin-4-ylamino]-phenol] |
| 82 | Nc1nc(Nc2ccc(C(F)(F)F)cc2)cc(-c2cc(Cl)ccc2Cl)n1 [Example 18, 6-(2,5-Dichloro-phenyl)-N*4*-(4-trifuoromethyl-phenyl)-pyrimidine-2,4-diamine] |
| 27 | Nc1nc(Nc2ccc3cn[nH]c3c2)cc(-c2cc(Cl)ccc2Cl)n1 [Example 19, 6-(2,5-Dichloro-phenyl)-N*4*-(1H-indazol-6-yl)-pyrimidine-2,4-diamine] |
| 20 | Nc1nc(Nc2ccc(Cl)cc2)cc(-c2cc(Cl)ccc2Cl)n1 [Example 20, N*4*-(4-Chloro-phenyl)-6-(2,5-dichloro-phenyl)-pyrimidine-2,4-diamine] |
| 330 | COC(=O)c1ccc(Nc2cc(-c3cc(Cl)ccc3Cl)nc(N)n2)cc1 [Example 21, 4-[2-Amino-6-(2,5-dichloro-phenyl)-pyrimidin-4-yl-amino]-benzoic acid methyl ester] |
| 60 | Nc1nc(Nc2ccc(CO)cc2)cc(-c2cc(Cl)ccc2Cl)n1 [Example 22, {4-[2-Amino-6-(2,5-dichloro-phenyl)-pyrimidin-4-yl-amino]-phenyl}-methanol] |
| 95 | Nc1nc(Nc2ccc3c(c2)OCO3)cc(-c2cc(Cl)ccc2Cl)n1 [Example 23, N*4*-Benzo[1,3]dioxol-5-yl-6-(2,5-dichloro-phenyl)-pyrimidine-2,4-diamine] |
| 29 | N#Cc1ccc(Nc2cc(-c3cc(Cl)ccc3Cl)nc(N)n2)cc1 [Example 24, 4-[2-Amino-6-(2,5-dichloro-phenyl)-pyrimidin-4-ylamino]-benzonitrile] |
| 9 | Nc1nc(Nc2ccc([N+](=O)[O-])cc2)cc(-c2cc(Cl)ccc2Cl)n1 [Example 25, 6-(2,5-Dichloro-phenyl)-N*4*-(4-nitro-phenyl)-pyrimidine-2,4-diamine] |
| 94 | Cc1ccc(Nc2cc(-c3cc(Cl)ccc3C)nc(N)n2)cc1 [Example 26, 6-(5-Chloro-2-methyl-phenyl)-N*4*-p-tolyl-pyrimidine-2,4-diamine] |
| 28 | Cc1ccc(Cl)cc1-c1cc(Nc2ccc(Cl)cc2)nc(N)n1 [Example 27, 6-(5-Chloro-2-methyl-phenyl)-N*4*-(4-chloro-phenyl)-pyrimidine-2,4-diamine] |
| 200 | COc1ccc(Nc2cc(-c3cc(Cl)ccc3C)nc(N)n2)cc1 [Example 28, 6-(5-Chloro-2-methyl-phenyl)-N*4*-(4-methoxy-phenyl)-pyrimidine-2,4-diamine] |
| 134 | Cc1ccc(Cl)cc1-c1cc(Nc2ccc(C(F)(F)F)cc2)nc(N)n1 [Example 29, 6-(5-Chloro-2-methyl-phenyl)-N*4*-(4-trifluoromethyl-phenyl)-pyrimidine-2,4-diamine] |
| 34 | Cc1ccc(Cl)cc1-c1cc(Nc2ccc(Br)cc2)nc(N)n1 [Example 30, N*4*-(4-Bromo-phenyl)-6-(5-chloro-2-methyl-phenyl)-pyrimidine-2,4-diamine] |
| 32 | Cc1ccc(Cl)cc1-c1cc(Nc2ccc3cn[nH]c3c2)nc(N)n1 [Example 31, 6-(5-Chloro-2-methyl-phenyl)-N*4*-(1H-indazol-6-yl)-pyrimidine-2,4-diamine] |
